Drawing on PubChem BioAssay (NCI), this text covers TGI for twelve molecules.

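Compound exposure: 48 hours, 5 concentrations, 96-well plates. TGI is the concentration that stops growth completely.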

Among the test systems are BT-549 breast; NCI-H522 lung; IGROV1 ovarian; SN12C renal; A549 NSCLC; HS 578T breast; OVCAR-8 ovarian; MCF7 breast; TK-10 renal; K-562 leukemia; CAKI-1 renal; SR leukemia.
Common to all, as to assay: NCI tumour cell line growth inhibition, 48 h

Consider `C=C1C(=O)CC2C(=O)C(C)(O)CC/C=C(\C)C(=O)CC12` (centres undefined), for which the TGI with BT-549 breast was 35.5 µM; in the assay on NCI-H522 lung, 17.1 µM; with IGROV1 ovarian it was 37.5 µM; in the assay with SN12C renal, 29.5 µM; with A549 NSCLC it was > 100 µM; with HS 578T breast, 43.5 µM. For the same molecule, the TGI was > 63.6 µM with OVCAR-8 ovarian; 36.6 µM with MCF7 breast; 34.4 µM in the assay on TK-10 renal; > 44.1 µM in the assay with K-562 leukemia; 7.98 µM in the assay with CAKI-1 renal; > 55.1 µM with SR leukemia.

On to `Cc1ccc2c(=O)cc(-c3cccs3)[nH]c2n1`, for which the TGI with BT-549 breast is > 100 µM; with NCI-H522 lung, > 47.4 µM; in the assay on IGROV1 ovarian, > 100 µM; in the assay on SN12C renal, > 100 µM; with A549 NSCLC, > 100 µM; with HS 578T breast it was > 71.4 µM. Moreover, the TGI in the assay on OVCAR-8 ovarian, in the assay with MCF7 breast, in the assay on TK-10 renal, in the assay with K-562 leukemia, in the assay on CAKI-1 renal and with SR leukemia was > 100 µM in each case.

In the case of `CCC1(C)N=C(c2cnccn2)NN1c1ccc(Cl)cc1` (centres undefined), the TGI in the assay on BT-549 breast is > 100 µM; in the assay on NCI-H522 lung, > 100 µM; with IGROV1 ovarian, > 100 µM; in the assay with SN12C renal it was 72.3 µM; in the assay on A549 NSCLC, > 100 µM; in the assay on HS 578T breast it was > 100 µM. Also, the TGI in the assay with OVCAR-8 ovarian is > 100 µM; in the assay with MCF7 breast, > 100 µM; in the assay with TK-10 renal, > 100 µM; in the assay on K-562 leukemia, > 100 µM; in the assay with CAKI-1 renal, > 100 µM; with SR leukemia, 76.2 µM.

Consider `Cc1ccc(-c2cc(N)n(-c3nc4c(c(=O)n(C)c(=O)n4C)n3C)n2)cc1`, for which the TGI with BT-549 breast, with NCI-H522 lung, in the assay on IGROV1 ovarian, with SN12C renal, with A549 NSCLC and with HS 578T breast was > 100 µM throughout. The TGI in the assay with OVCAR-8 ovarian, in the assay on MCF7 breast, in the assay on TK-10 renal, in the assay with K-562 leukemia, in the assay with CAKI-1 renal and with SR leukemia was > 100 µM in each case.

As for `COc1ccc(Nc2nc(NS(=O)(=O)c3cc(C)c(Cl)cc3S)n[nH]2)cc1`, the TGI in the assay with BT-549 breast, in the assay on NCI-H522 lung, in the assay with IGROV1 ovarian, with SN12C renal, with A549 NSCLC and with HS 578T breast was > 100 µM throughout. Besides, the TGI in the assay with OVCAR-8 ovarian, in the assay on MCF7 breast, in the assay on TK-10 renal, in the assay on K-562 leukemia, in the assay on CAKI-1 renal and in the assay on SR leukemia was > 100 µM each time.

Regarding `CCC(C#N)NC(=O)NC(C#N)CC` (centres undefined), the TGI in the assay with BT-549 breast, with NCI-H522 lung, with IGROV1 ovarian, with SN12C renal, in the assay on A549 NSCLC and in the assay with HS 578T breast was > 100 µM in each case. The TGI in the assay on OVCAR-8 ovarian, in the assay with MCF7 breast, in the assay on TK-10 renal, in the assay on K-562 leukemia, in the assay on CAKI-1 renal and in the assay on SR leukemia was > 100 µM in each case.

Regarding `CCOC(=O)/C1=C(\C)N(c2ccc(C)cc2)C(=O)c2ccccc2C(=O)c2c(OC(C)=O)ccc(OC(C)=O)c21`, the TGI was 90.2 µM in the assay with BT-549 breast; 74.1 µM with NCI-H522 lung; 36.6 µM with IGROV1 ovarian; 50.5 µM in the assay on SN12C renal; > 100 µM in the assay with A549 NSCLC; 48.2 µM in the assay on HS 578T breast. The TGI in the assay with OVCAR-8 ovarian is > 100 µM; with MCF7 breast it was 97.7 µM; in the assay on TK-10 renal it was 44.4 µM; with K-562 leukemia, 38.7 µM; in the assay on CAKI-1 renal, 38.5 µM; in the assay with SR leukemia it was 35.7 µM.

For `CCC1(C(=O)OC(C)(C)C)OC12C(C)CCCC2C` (centres undefined), the TGI with BT-549 breast, with NCI-H522 lung, in the assay with IGROV1 ovarian, in the assay with SN12C renal, in the assay on A549 NSCLC and with HS 578T breast was > 100 µM each time. Moreover, the TGI in the assay on OVCAR-8 ovarian was > 100 µM; in the assay on MCF7 breast, 51.4 µM; in the assay on TK-10 renal, > 100 µM; in the assay on K-562 leukemia, 52.8 µM; in the assay with CAKI-1 renal, > 100 µM; with SR leukemia, 38.3 µM.

With `CC(=O)c1ccc2c3c1[C@@H]1O[C@@H]1c1cccc(c1-3)[C@@H]1O[C@H]21`, the TGI worked out at 35.1 µM in the assay with BT-549 breast; 13 µM with NCI-H522 lung; 2.44 µM in the assay on IGROV1 ovarian; 23.9 µM in the assay on SN12C renal; 37.4 µM in the assay on A549 NSCLC; 70.7 µM in the assay with HS 578T breast. Also, the TGI was 18.1 µM with OVCAR-8 ovarian; > 40.1 µM with MCF7 breast; > 77.1 µM in the assay on TK-10 renal; > 100 µM in the assay on K-562 leukemia; 15 µM with CAKI-1 renal; > 100 µM in the assay with SR leukemia.

With `CN(C)Cc1cc(C(=O)/C=C/c2ccccc2Cl)cc(CN(C)C)c1O`, the TGI came to 20 µM in the assay on BT-549 breast; 18 µM in the assay with NCI-H522 lung; 28 µM with IGROV1 ovarian; 23.6 µM in the assay with SN12C renal; 38.7 µM in the assay on A549 NSCLC; 46.3 µM in the assay on HS 578T breast. Further, the TGI in the assay on OVCAR-8 ovarian stood at 31.9 µM; in the assay on MCF7 breast it was 26.1 µM; in the assay on TK-10 renal, 34.9 µM; in the assay on K-562 leukemia, 24.3 µM; in the assay on CAKI-1 renal, 14.4 µM; in the assay with SR leukemia, 35.5 µM.

For the molecule `CCOC(=O)c1ccc(N2C(=S)N(C(=O)c3ccccc3)C(=Nc3ccccc3)C2=Nc2ccccc2)cc1`, the TGI with BT-549 breast, with NCI-H522 lung, with IGROV1 ovarian, in the assay with SN12C renal, in the assay with A549 NSCLC and in the assay on HS 578T breast was > 100 µM throughout. Besides, the TGI in the assay on OVCAR-8 ovarian, in the assay on MCF7 breast, in the assay on TK-10 renal, with K-562 leukemia, in the assay with CAKI-1 renal and in the assay with SR leukemia was > 100 µM each time.

Regarding `CCOC(=O)/C=C(\C(=O)OCC)n1cc(C)c(=O)n(Cc2cnnn2CCCCOC(C)=O)c1=O`, the TGI in the assay on BT-549 breast was 22.6 µM; in the assay with NCI-H522 lung, 3.33 µM; in the assay with IGROV1 ovarian, 28.1 µM; in the assay on SN12C renal, 39.3 µM; with A549 NSCLC, 60.7 µM; in the assay on HS 578T breast it was > 66.4 µM. In addition, the TGI in the assay with OVCAR-8 ovarian is 15.6 µM; in the assay with MCF7 breast, 21.5 µM; with TK-10 renal, 13.7 µM; in the assay on K-562 leukemia, > 35.9 µM; in the assay with CAKI-1 renal it was 8.73 µM; in the assay on SR leukemia it was 5.86 µM.
